Earlier results, collected in US8017153B2, “Dietary supplement composition for blood lipid health” (U.S. Nutraceuticals, LLC, priority 2006, dated 2011).

Details: Human studies

- total radioactivity excreted in the feces: 81-91%
- total radioactivity found in urine: 1.2%
Substance: [^3H]-octacosanol
